{"source": "patent US10295537B2", "about": "“Biorecognition elements for rapid detection of biocontamination” (The United States of America, as represented by the …, priority 2017, dated 2019)", "data": [{"tested_on": "P. stutzeri cells", "assay": "Fluorometry of P. stutzeri cells labeled with peptide-QD525 conjugates", "type": "cell-based", "conditions": "emission peak at 525 nm, 1×10^9 P. stutzeri cells", "experimental": "The emission peak fluorescence at 525 nm of 1×10^9 P. stutzeri cells labeled with peptide-QD525 conjugates was measured in a fluorometer and relative fluorescence units (“RFIU”) were compared (Table 6 and 7, above). Peptides OBP11 and OBP12 targeting OprF, and peptide OPP1 targeting Opr86 presented fluorescence levels that greatly surpassed the other selected peptides for the respective target. OPP1, OBP11, and OBP12 were selected for further characterization and validation.\n(§1) Bacterial stocks for experimentation were prepared by harvesting overnight grown bacterial cells by centrifugation at 11000×g for 15 min (at 4° C.), washed once with 1×PBS, pH 7.2, and re-suspended in 1×PBS to a concentration of 1×10^9 cells/mL. Bacterial titers were determined by measuring optical density at 600 nm and confirmed by colony counting on LB agar plates. Cell pellets produced by centrifuging 1 mL of the 1×10^9 cells/mL stock were re-suspended in 38 μL of 1×PBS and 62 μL of 2.4 μM peptide-QD was added to a final concentration of 1.5 μM. Cells were incubated for 30 min at 25° C. Cell pellets were washed three-times with 0.5 mL PBS and re-suspended in 500 μL PBS for fluorescence assays and imaging. Dilutions ranging from 1×10^9 cells to 1×10^4 cells were prepared using standard bacteriological techniques and 0.5 mL samples were used for fluorescence measurements.\n(§2) Emission spectra were obtained using Cary Eclipse Fluorimeter with excitation at 330 nm, scan rate of 120 nm/imin, and PMT voltage of 1000V. Spectra were corrected for background and dilution factor when appropriate.", "units": {"Fluorescence (RFU)": "RFU"}, "values": [{"substance": "R K K S R I R (RKKSRIR; Artificial sequence obtained through biopanning.) [OPP6, Opr86 peptide BRE]", "Fluorescence (RFU)": "4126 ± 98"}, {"substance": "PIKTNRK (Artificial sequence obtained through biopanning.) [OBP11]", "Fluorescence (RFU)": "5308 ± 501"}, {"substance": "I I T M K R R (IITMKRR; Artificial sequence obtained through biopanning.) [OPP5, Opr86 peptide BRE]", "Fluorescence (RFU)": "4408 ± 225"}, {"substance": "RRSNSQL (Artificial sequence obtained through biopanning.) [OBP4]", "Fluorescence (RFU)": "4520 ± 473"}, {"substance": "PKRTPRH (Artificial sequence obtained through biopanning.) [OBP12]", "Fluorescence (RFU)": "6443 ± 957"}, {"substance": "QMLLRLP (Artificial sequence obtained through biopanning.) [OBP9]", "Fluorescence (RFU)": "3338 ± 590"}, {"substance": "L P S T I H R (LPSTIHR; Artificial sequence obtained through biopanning.) [OPP3, Opr86 peptide BRE]", "Fluorescence (RFU)": "2251 ± 63"}, {"substance": "NMTNPPP (Artificial sequence obtained through biopanning.) [OBP6]", "Fluorescence (RFU)": "2080 ± 280"}]}, {"tested_on": "Opr86", "assay": "Solution biopanning against biotinylated Opr86 extracellular loop fragment, three rounds of selection", "type": "binding, P. aeruginosa", "conditions": "Bushnell-Haas pH 8.5 with 1% Jet-A", "experimental": "Generally, solution-phase biopanning was carried out as described by the manufacturer (New England Biolabs, Ipswich, Mass.) with some modifications, including the changing of pH from 7.0 to 5.5 and 8.5 and adding 1% v/v of Jet A fuel. The first round of selection was carried out by diluting Ph.D.-7 bacteriophage library 100-fold in 0.1% Tris buffer saline plus Tween 20 (0.1% TBST) at the appropriate pH for selection plus fuel. Subsequently, the phage library was incubated with 1 μg of N-terminal biotinylated target protein fragment (OprF1: […] (SEQ. ID No. 1), OprF2: ADIKNLADFMK QYPSTSTT (SEQ. ID No. 2), Opr86: […] STP (SEQ. ID No. 3)) for 1 hr at 25° C. Phage-protein complexes were captured with 50 μL of streptavidin magnetic microbeads, unbound phages were removed, and the pellet sample washed 10-times with 1 mL of 1× Tris buffer saline (“TBS”) plus 0.05% TBST to remove weakly bound phage particles. Bound bacteriophages were eluted from the beads by lowering the pH (0.2 M Glycine-HCl, pH 2.2) while rotating gently for 10 min at 25° C. After neutralization with 1 M Tris-HCl, pH 9.1, eluted phages were amplified by infection of E. coli strain ER 2738 grown in Luria-Bertani (“LB”) broth medium until early-log phase (OD600 0.1-0.5). Titer of the amplified phage (more than 10^10 pfu/mL) was determined by infection into E. coli ER2738 and subsequent growth in selective medium containing X gal/IPTG. Amplified phages from round 1 were pre-cleared with streptavidin-coated magnetic microbeads (50 μL) to further remove non-specific binders and then used as the input phage for round 2 of selection. Enrichment of the bacteriophage pool was achieved by performing […] of selection under the appropriate pH plus jet fuel condition. Genomic DNA from individual clones was sequenced by GenScript (Piscataway, N.J.).\nThe particular region of the Opr86 extracellular loop of sequence […] (SEQ. ID No. 3) was chemically synthesized with a biotin capture element and used as target epitope for BRE development in solution biopanning in Bushnell-Haas, pH 8.5, supplemented with 1% Jet-A. Following the previously established procedure for OprF, several unique Opr86 peptide BREs (“OPPs”) were identified after three rounds of selection (Table 7, above).", "units": {"% Abundance": "%"}, "values": [{"substance": "R K K S R I R (RKKSRIR; Artificial sequence obtained through biopanning.) [OPP6, Opr86 peptide BRE]", "% Abundance": 2}, {"substance": "I I T M K R R (IITMKRR; Artificial sequence obtained through biopanning.) [OPP5, Opr86 peptide BRE]", "% Abundance": 3}, {"substance": "L P S T I H R (LPSTIHR; Artificial sequence obtained through biopanning.) [OPP3, Opr86 peptide BRE]", "% Abundance": 2}]}, {"tested_on": "Gram negative (P. stutzeri, P. alkaligenes, P. aeruginosa, A. venetianus) and Gram positive (Arthrobacter sp., Lynsinibacillus sp.) bacteria", "assay": "Fluorescence microscopy of fuel degrading bacteria labeled with peptide BRE-QD545", "type": "cell-based", "conditions": "1×10^9 cells, QD545, 1.5 μM", "experimental": "(§3) To characterize the specificity of the peptide BRE-QD545 conjugates for the intended bacterial groups, fluorescence imaging and fluorometric analysis were performed using different Gram negative and Gram positive fuel degrading bacteria. As such, cultures comprising 1×10^9 cells of Gram negative bacteria (P. stutzeri, P. alkaligenes, P. aeruginosa and A. venetianus) and Gram positive bacteria (Arthrobacter sp. and Lynsinibacillus sp.) were labeled with OPP1, OBP11 and OBP12 biofunctionalized QD545 and visualized using fluorescence microscopy (FIGS. 5-10) and the fluorescence quantified using a fluorometer (FIG. 11).\nas §1\n10 μL of the prepared sample was placed on a microscope slide, covered with a coverslip, and visualized on an Nikon Eclipse Ti-E inverted microscope equipped with X-Cite LED lamp, a fluorescence filter set (a bandpass exciter 405 nm and a longpass emission filter), a 1.25-numerical-aperture oil-immersion objective (DPlan 100×, Nikon). Images were captured by Nikon DS-sCMOS camera.", "values": [{"substance": "PIKTNRK (Artificial sequence obtained through biopanning.) [OBP11]", "labeling of bacteria in fluorescence micrographs": "specifically labeled Gram negative bacteria but not the Gram positive bacteria"}, {"substance": "PKRTPRH (Artificial sequence obtained through biopanning.) [OBP12]", "labeling of bacteria in fluorescence micrographs": "specifically labeled Gram negative bacteria but not the Gram positive bacteria"}]}, {"tested_on": "Gram negative bacteria (A. venetianus and Pseudomonas spp.)", "assay": "Fluorometry of fuel degrading bacteria labeled with peptide-QD545 conjugates (FIG. 11)", "type": "cell-based", "conditions": "1×10^9 cells, QD545 conjugates, FIG. 11", "experimental": "as §3, §1, §2", "values": [{"substance": "PIKTNRK (Artificial sequence obtained through biopanning.) [OBP11]", "detection of Gram negative bacteria by fluorometer": "able to detect all Gram negative bacteria tested"}, {"substance": "PKRTPRH (Artificial sequence obtained through biopanning.) [OBP12]", "detection of Gram negative bacteria by fluorometer": "able to detect all Gram negative bacteria tested"}]}, {"tested_on": "Gram negative bacteria (A. venetianus and Pseudomonas spp.)", "assay": "Fluorometry of fuel degrading bacteria labeled with peptide-QD545 conjugates (FIG. 11)", "type": "cell-based", "conditions": "P. stutzeri", "experimental": "as §3, §1, §2", "values": [{"substance": "PKRTPRH (Artificial sequence obtained through biopanning.) [OBP12]", "LOD of P. stutzeri compared among all the BREs": "highest LOD"}]}]}
